Series [1] has as its system TNF-α. The series can be described thus: Serum cytokine determination by ELISA (TNF-α). Conditions: H/F neonatal rats + CO 250 ppm; 33.2 fold in H/F without CO. The class given is in vivo, rat. As for the experimental part: (§1) Pregnant time-dated Sprague-Dawley rats were induced at term using subcutaneous injection of Pitocin (1 U). Immediately after birth (day zero), the neonates were weighed and randomized into two main groups. Animals were either left with their mothers and thus breast-fed, or separated from their mothers, housed in an incubator (Ohio Medical Products, Madison, Wis.), gavage fed with a special rodent formula two times daily, and subjected to 10 minutes of hypoxia (5% O2, 95% N2; PraxAir, Pittsburgh, Pa.) prior to each feeding. The formula consisted of 15 g Similac® 60/40 (Ross Pediatrics, Colombus, Ohio) in 75 mL of Esbilac® canine milk replacement (Pet-Ag Inc., Hampshire, Ill.). Rats from each group were further randomized to receive no additional treatment or one-hour per day CO treatment (250 parts per million; ppm, days 1-3). CO was delivered as described below. The neonatal rats were sacrificed on day four. The intestines were inspected for gross necrotic changes and pneumatosis intestinalis. The last 2 cm of terminal ileum was harvested for morphological studies, and mucosal scrapings were collected for detection of protein.
(§2) Animals were exposed to CO at a concentration of 250 ppm. Briefly, 1% CO in air was mixed with air (21% oxygen) in a stainless steel mixing cylinder and then directed into a 3.70 ft^3 glass exposure chamber at a flow rate of 12 L/min. […]
Background: In an ELISA, binding on a coated surface is turned into a signal by an enzyme label.

In series [2] the test system is IL-1β. Briefly: Serum cytokine determination by ELISA (IL-1β). The class given is in vivo, rat. Conditions: H/F neonatal rats + CO 250 ppm; 18.5 fold in H/F without CO. As for the experimental part:
as §1, §2

In series [3] the test system is iNOS. Briefly: Western blot of ileal mucosal lysates (iNOS). The class given is in vivo, rat. The note with it: H/F neonatal rats + CO, ileal mucosa. As for the experimental part:
as §1, with “The last 2 cm of terminal ileum was harvested for morphological studies, and mucosal scrapings were collected for detection of protein.” left out
(§3) IEC-6 cells or ileal mucosal scrapings were collected in lysis buffer containing 20 mmol/L Tris with 100 μmol/L phenylmethylsulfonylfluoride (Sigma), 1 μmol/L leupeptin (Sigma), and 1 μmol/L sodium orthovanadate (Sigma). Protein was quantified by bicinchoninic acid (BCA) protein assay (Pierce, Rockford, Ill.). […]
(In western blotting, separated proteins are transferred to a membrane and probed.)

For series [4], the system named is COX-2. The series can be described thus: Western blot of ileal mucosal lysates (COX-2). The note with it: H/F neonatal rats + CO, ileal mucosa. The class given is in vivo, rat. On the procedure:
as §1, with “The last 2 cm of terminal ileum was harvested for morphological studies, and mucosal scrapings were collected for detection of protein.” left out
as §3

The subject of series [5] is HO-1. Briefly: Western blot of ileal mucosal lysates (HO-1). Format: in vivo, rat. The note with it: H/F neonatal rats + CO (data not shown). As for the experimental part: as §1, with “The last 2 cm of terminal ileum was harvested for morphological studies, and mucosal scrapings were collected for detection of protein.” left out
as §3

The subject of series [6] is iNOS. Briefly: iNOS protein expression in IEC-6 cells by Western blot. The class given is cell-based, rat. The note with it: 24 hours, CO 250 ppm from 1 hour before; for Cytokine-induced increase in iNOS protein in IEC-6 cells: CM: TNF-α 10 ng/ml, IL-1β 500 U/ml, IFN-γ 1000 U/ml, CoPP 16 hours before. On the procedure:
FIG. 8A is a picture of a Western blot illustrating (at 24 hours) that iNOS protein expression is inhibited in lipopolysaccharide (LPS) and/or hypoxia (1% oxygen) treated IEC-6 cells. CO treatment (250 ppm) was initiated 1 hour before the addition of LPS/hypoxia and maintained throughout the experiment. The combination of LPS (10 or 100 ng/ml) plus hypoxia increased iNOS protein expression, an effect that was inhibited by CO. The presence (+) or absence (−) of each treatment (lipopolysaccharide (lps), hypoxia exposure (hypoxia) and CO exposure (CO)) is indicated beneath each lane of the Western blot.
(§4) FIG. 8C is a picture of a Western blot illustrating that cytokine-induced iNOS protein expression is inhibited in IEC-6 cells by induction of HO-1 or treatment with CO. IEC-6 cells were treated with a cytokine mixture (CM) containing TNF-α (10 ng/ml), IL-1β (500 U/ml), and IFN-γ (1000 U/ml) for 24 hours. CO treatment (250 ppm) was initiated 1 hour prior to administration of CM and maintained throughout the duration of the experiment. Cobalt protoporphyrin (CoPP) was administered 16 hours prior to CM treatment. CM increased IEC-6 cell iNOS protein. Both CO and CoPP inhibited cytokine-induced increase in iNOS protein. The presence (+) or absence (−) of each treatment (cytokine mixture (CM), CO exposure (CO), and cobalt protoporphyrin exposure (CoPP)) is indicated beneath each lane of the Western blot.
The rat small-intestinal epithelial cell line IEC-6 was obtained from the American Type Culture Collection (Manassas, Va.). […]
as §3

The test system of series [7] is neonatal rat ileum. The series can be described thus: Animal model of necrotizing enterocolitis: gross and microscopic pathology of ileum. Conditions: for Gross Changes (n): Bowel wall necrosis / Gross Changes (n): Pneumatosis intestinalis / Microscopic Changes (n): Stromal neutrophils / Microscopic Changes (n): Vacuolization / Microscopic Changes (n): Villous atrophy: day 4 of life. Format: in vivo. On the procedure: as §1
Animals were exposed to CO at a concentration of 250 ppm. Briefly, 1% CO in air was mixed with air (21% oxygen) in a stainless steel mixing cylinder and then directed into a 3.70 ft^3 glass exposure chamber at a flow rate of 12 L/min. A CO analyzer (Interscan, Chatsworth, Calif.) was used to measure CO levels continuously in the chamber. CO concentrations were maintained at 250 ppm at all times. Rats were placed in the exposure chamber as required.
Intestinal specimens were harvested as described above. Hematoxylin and eosin (H&E) slides were prepared as per standard protocol and examined by light microscopy. The presence of morphological changes in the intestinal epithelium, including separation of the villous core, submucosal edema, and epithelial sloughing, were determined by a pathologist in a blinded fashion.

Series [8] concerns IEC-6 cells. Briefly: Nitrite determination (Griess) in IEC-6 culture medium. Format: cell-based, rat. The note with it: CM stimulation; 17.2±0.9 μM with CM alone, 1.4±0.3 μM unstimulated. As for the experimental part: as §4
FIG. 8D is a bar graph illustrating that the nitrite levels in supernatantants of IEC-6 cells that are exposed to CM and either CO or CoPP are lower than those of IEC-6 cells exposed to CM and air (as determined by Griess assay). Cytokine stimulation increased nitrite to 17.2±0.9 μM compared to 1.4±0.3 μM in unstimulated controls (P<0.01). […] Black bars=air exposed cells; gray bars=CO exposed cells; and cross-hatched bars=CoPP exposed cells. […]
Nitrite (NO2^−) was measured in the culture medium using the Griess method.
For orientation: The Griess reaction detects nitrite, a stable product of nitric oxide.

For series [9], the system named is IEC-6 cells. Briefly: TNF-α/Actinomycin D-induced IEC-6 cell death, viability by cellular ATP content. The class given is cell-based, rat. Conditions: for TNF-α/ActD-induced IEC-6 cell death (in words): CoPP 16 hours before. On the procedure: FIG. 7 is a bar graph illustrating that CO exposure and induction of HO-1 decreases TNF-α/Actinomycin D (TNF/ActD)-induced IEC-6 cell death. Viability of TNF-α (TNF; 10 ng/ml)/Actinomycin D (ActD; 200 ng/ml)-treated IEC-6 cells was assayed after 18 hours by measuring cellular ATP content. CO treatment (CO; gray bars; 250 ppm) was initiated 1 hour prior to administration of TNF-α/ActD and maintained throughout the duration of the experiment. Cross-hatched bars=cells exposed to cobalt protoporphyrin (CoPP) 16 hours prior to exposure to TNF-α/ActD. Black bars=air exposed cells. […] Results are mean±standard error of 3 independent studies performed in triplicate.
(§5) The rat small-intestinal epithelial cell line IEC-6 was obtained from the American Type Culture Collection (Manassas, Va.). Cells were grown in Dulbecco's modified Eagle's medium with 4.5 g/L glucose (Bio-Whittaker, Walkersville, Md.) supplemented with 5% fetal bovine serum, […] (Gibco, Grand Island, N.Y.), 0.1 U/mL insulin, and 100 U/mL penicillin/100 μg/mL streptomycin at 37° C. and 10% CO2. Cells from passages 3 through 20 were used for experiments.
Cell viability was determined by measuring ATP levels (CellTiter-Glo™; Promega) as per the manufacturer's protocol.
To determine whether HO-1 or CO inhibits cell death in vitro, the rat intestinal epithelial cell line IEC-6 was utilized. Cell death was induced by treating these cells with TNF-α (10 ng/ml) plus actinomycin D (ActD; 200 ng/ml). Cell viability was analyzed by crystal violet staining of adherent cells and assessment of cellular ATP content. TNF-α/ActD decreased IEC-6 cell viability to 24±2.1% that of untreated controls (FIG. 7; P<0.05).

Series [10] concerns IL-1β. Briefly: Western blot of ileal mucosal lysates (IL-1β). The note with it: H/F neonatal rats + CO, ileal mucosa. Format: in vivo, rat. As for the experimental part: as §1, with “The last 2 cm of terminal ileum was harvested for morphological studies, and mucosal scrapings were collected for detection of protein.” left out
as §3

In series [11] the test system is nitrosotyrosines. Briefly: Western blot of ileal mucosal lysates (protein nitration). The note with it: H/F neonatal rats + CO, ileal mucosa. Format: in vivo, rat. As for the experimental part: as §1, with “The last 2 cm of terminal ileum was harvested for morphological studies, and mucosal scrapings were collected for detection of protein.” left out
as §3

Series [12] relates to neonatal rat ileum. The series can be described thus: TUNEL staining of ileal whole mounts in the NEC model. Format: in vivo. The note with it: H/F neonatal rats, CO 250 ppm 1 h/day days 1-3, ileum day 4. As for the experimental part:
as §1, §2

Series [13] relates to rat iNOS promoter. The series can be described thus: Rat iNOS promoter-luciferase reporter assay in IEC-6 cells. Format: cell-based. The note with it: IEC-6, LPS 100 ng/ml + 1% oxygen + CO; 4.9±0.3 fold without CO. On the procedure: FIG. 8B is a bar graph illustrating that rat iNOS promoter activity in LPS (100 ng/ml)/hypoxia (1% oxygen; lps/hypoxia)-treated IEC-6 cells is limited by exposure to CO. Cells were assayed for luciferase activity. […] CO limited this transcriptional activation to a 1.7±0.2 fold increase (P<0.05). Results are mean±standard error of 3 independent studies performed in triplicate.
as §5
pGL3/2 rat iNOS promoter-luciferase reporter was constructed as described in Beck et al., FEBS Lett 435:35-38 (1998). IEC-6 cells grown in 35 mm wells were transfected with 4 μL Lipofectamine2000® (Invitrogen), 0.15 μg pGL3/2 DNA and 0.5 μg pIEP-LacZ DNA, which was used as a control for transfection efficiency. Twenty-four hours following transfection, cells were treated for 6 hours, then lysates were collected and a luciferase assay (Promega) was performed with a luminometer (Berthold, Germany).

Where [14] appears, read: Breast-fed + CO (250 ppm, 1 h/day, days 1-3), total n=7.
Where [15] appears, read: Formula-Fed/Hypoxia + CO (250 ppm, 1 h/day, days 1-3), total n=8.
[16] abbreviates: TNF-α 10 ng/ml + ActD 200 ng/ml, 18 hours, CO 250 ppm from 1 hour before.

SMILES strings stand for the structures.

`[C-]#[O+]` [CO, carbon monoxide]: in series [1], the “Serum TNF-α increase compared to breast fed controls” value is given as 3 fold. The “Serum IL-1β increase compared to breast fed controls” value in series [2] stood at 2.5 fold. Moreover, the “Ileal iNOS protein” value in series [3] is on record as “markedly decreased”. The “Ileal COX-2 protein expression” value in [4] is on record as “decreased expression”. The “Ileal HO-1 expression” value in series [5] is on record as “decreased expression”. In addition, in series [6], the “Cytokine-induced increase in iNOS protein in IEC-6 cells” value is “inhibited”. The “LPS/hypoxia-induced iNOS protein in IEC-6 cells” value in [6] (LPS 10 or 100 ng/ml + 1% oxygen) was “inhibited”. Moreover, in series [7] (setting [14]), the “Gross Changes (n): Bowel wall necrosis” value stood at 0 n, the “Gross Changes (n): Pneumatosis intestinalis” value is 0 n, the “Microscopic Changes (n): Stromal neutrophils” value was determined as 0 n and the “Microscopic Changes (n): Vacuolization” value was found to be 1 n. Further, in [7] (setting [14]), the “Microscopic Changes (n): Villous atrophy” value was 0 n. Also, in [7] (setting [15]), the “Gross Changes (n): Bowel wall necrosis” value is 2 n, the “Gross Changes (n): Pneumatosis intestinalis” value was 1 n, the “Microscopic Changes (n): Stromal neutrophils” value came to 1 n and the “Microscopic Changes (n): Vacuolization” value was 3 n. Further, in [7] (setting [15]), the “Microscopic Changes (n): Villous atrophy” value is listed as 2 n. In addition, the “Development of experimental NEC” value in [7] (H/F (hypoxia/formula fed) neonatal rats, CO 250 ppm 1 h/day days 1-3, day 4) is “significantly protected”. Also, the “Effect on gross or microscopic evaluation” value in [7] (breast fed neonatal rats, CO 250 ppm 1 h/day days 1-3, day 4) was “no effect”. In addition, the “Nitrite levels in supernatants of cytokine-stimulated IEC-6 cells” value in series [8] worked out at 9.8 ± 0.7 µM. The “Effect on viability of IEC-6 cells, agent alone” value in series [9] (CO alone, in vitro) is recorded as “no measurable effect”. In series [9] (setting [16]), the “TNF-α/ActD-induced IEC-6 cell death (in words)” value was “significantly decreased”. In addition, in series [9] (TNF-α 10 ng/ml + ActD 200 ng/ml, 18 hours, CO 250 ppm from 1 hour before, 24±2.1% without CO), the “IEC-6 cell viability compared to untreated controls” value stood at 54±5.6%. In addition, the “Ileal IL-1β protein expression” value in series [10] is listed as “decreased expression”. In [11], the “Ileal nitrosotyrosines (protein nitration)” value is listed as “markedly decreased”. In series [12], the “TUNEL staining for cell death” value is “diminished”. Besides, in series [13], the “Transcriptional activation of the iNOS promoter, fold increase” value is reported as 1.7±0.2 fold.

`C=CC1=C(C)c2cc3[n-]c(cc4nc(cc5[n-]c(cc1n2)c(C)c5CCC(=O)[O-])C(CCC(=O)[O-])=C4C)c(C)c3C=C.[Co+2].[H+].[H+]` [CoPP, cobalt protoporphyrin, reference compound]: the “Cytokine-induced increase in iNOS protein in IEC-6 cells” value in series [6] is listed as “inhibited”. Further, in series [8], the “Nitrite levels in supernatants of cytokine-stimulated IEC-6 cells” value turned out to be 10.4 ± 1.0 µM. The “TNF-α/ActD-induced IEC-6 cell death (in words)” value in series [9] (setting [16]) is given as “significantly decreased”.
